Laboratory results published in patent publication US20140328795A1, “VIRUCIDAL SMALL MOLECULE AND USES THEREOF” (The Texas A&M University System, priority 2012, published 2014).
Where two headings read alike, the source gives them in different places.

Key:
primary HIV-1 isolates = experiment: microbe, parasite or virus in culture; format: cell-based; conditions: Human immunodeficiency virus 1, TZM-bl
HIV-2 = HIV-2 infectivity assay in TZM-bl cells (β-galactosidase); format: cell-based; conditions: Human immunodeficiency virus 2, TZM-bl, PD in DMEM with 10% fetal bovine serum, IC90 per footnote, read-out: IC50 (the source's name)
[1] = system: HepG2, HCT-8, Huh-7, Huh-7.5, TZM, PC3 and 293T cells; format: cell-based, human
HIV-1 (R5 JR-CSF) = experiment: Antiviral effect of PD before, during and after HIV-1 exposure (TZM-bl); format: cell-based
VSV-Gpp = format: physicochemical
HSV-1 (Syn 17) = format: cell-based; conditions: 2 μM and 0.2 μM PD
Description: (§1) FIGS. 16A-16B depict effectiveness of PD against HSV. PD blocks HSV infection. Vero cells were seeded in a 24-well plate and infected with HSV-1 (Syn 17) or HSV-2 (333) (FIG. 16A). PD (200 nM) or control DMSO (0.01%) was added immediately to the target cells after viral inoculation. Two days later, the cells were harvested, stained with antibody against HSV glycoprotein gD and analyzed by flow cytometry. Error bars represent standard deviation of triplicate samples. Results are representative of two independent experiments. PD Destabilizes HSV particles (FIG. 16B). Concentrated HSV (˜20 μg/mL) was incubated with DMSO (0.01%) or PD (200 nM) for 30 min at 37° C. and the mixture was immediately loaded over a 20-70% sucrose density gradient. The amount of HSV glycoprotein gpB in each fraction was analyzed by ELISA. The sucrose gradient density of each fraction was determined by measuring the refractive index. Results are representative of 2 independent experiments. Error bars represent the standard deviation of triplicate samples.
(§2) Vero cells (2×10^5 cells/well) were seeded in a 24 well plate. The next day, these cells were infected with increasing titers (MOI range 0.0001-1) of HSV-1 (Syn 17) or HSV-2 (333) in the presence of PD (2 μM and 200 nM) or control DMSO (0.01%) prepared in DMEM in the absence of serum. Two days post-inoculation, cells were harvested, fixed with 5% paraformaldehyde (PFA) in PBS, stained with antibodies against HSV glycoprotein gD (Novus biological, Littleton, Colo.) and analyzed by flow cytometry.
(§3) Applicants investigated the ability of PD to inactivate HSV-1 and -2. Vero cells were infected with HSV-1 and HSV-2 in the presence of PD (2 μM and 0.2 μM) or DMSO (0.01%). These concentrations were selected based on their closeness to the in vitro IC50 of PD against HIV-1. Infection was quantified by the cell surface expression of HSV gD. […] Similar results were obtained for both concentrations and the data from the lowest concentration is presented.

HSV-2 (333) = format: cell-based; conditions: 2 μM and 0.2 μM PD
Description: as §1, §2, §3

[2] = system: freshly activated human PBMCs
[3] = system: primary CD4+ T-lymphocytes, macrophages and dendritic cells; experiment: Primary cells toxicity testing (LDH release); conditions: up to 14 days

N=C1Sc2ccccc2C2=NCCCN12 [PD, PD 404,182]
IC90 (primary HIV-1 isolates; HIV-1 92HT599 (clade B, X4), PD in DMEM with 10% fetal bovine serum, IC90 per footnote): 5.8 µM
IC90 (primary HIV-1 isolates; HIV-1 92HT599 (clade B, X4), PD in cervical fluids, IC90 per footnote): 6.4 µM
IC90 (primary HIV-1 isolates; HIV-1 92HT599 (clade B, X4), PD in seminal plasma, IC90 per footnote): 6.31 µM
IC90 (primary HIV-1 isolates; HIV-1 92RW021 (clade A, R5), PD in DMEM with 10% fetal bovine serum, IC90 per footnote): 3.8 µM
IC90 (primary HIV-1 isolates; HIV-1 92RW021 (clade A, R5), PD in cervical fluids, IC90 per footnote): 4.4 µM
IC90 (primary HIV-1 isolates; HIV-1 92TH003 (clade E, R5), PD in DMEM with 10% fetal bovine serum, IC90 per footnote): 8.6 µM
IC90 (primary HIV-1 isolates; HIV-1 92TH003 (clade E, R5), PD in cervical fluids, IC90 per footnote): 7.8 µM
IC90 (primary HIV-1 isolates; HIV-1 92TH003 (clade E, R5), PD in seminal plasma, IC90 per footnote): 6.73 µM
IC90 (primary HIV-1 isolates; HIV-1 92TH029 (clade B, R5), PD in DMEM with 10% fetal bovine serum, IC90 per footnote): 2.8 µM
IC90 (primary HIV-1 isolates; HIV-1 92TH029 (clade B, R5), PD in cervical fluids, IC90 per footnote): 3.3 µM
IC90 (primary HIV-1 isolates; HIV-1 92TH029 (clade B, R5), PD in seminal plasma, IC90 per footnote): 2.95 µM
IC50 (primary HIV-1 isolates; HIV-1 92UG024 (clade D, X4), PD in DMEM with 10% fetal bovine serum): 0.33 µM
IC90 (primary HIV-1 isolates; HIV-1 92UG024 (clade D, X4), PD in DMEM with 10% fetal bovine serum, IC90 per footnote): 1.4 µM
IC90 (primary HIV-1 isolates; HIV-1 92UG024 (clade D, X4), PD in cervical fluids, IC90 per footnote): 1.8 µM
IC90 (primary HIV-1 isolates; HIV-1 92UG024 (clade D, X4), PD in seminal plasma, IC90 per footnote): 1.68 µM
IC90 (primary HIV-1 isolates; HIV-1 92UG029 (clade A, X4), PD in DMEM with 10% fetal bovine serum, IC90 per footnote): 4.4 µM
IC90 (primary HIV-1 isolates; HIV-1 92UG029 (clade A, X4), PD in cervical fluids, IC90 per footnote): 5.3 µM
IC90 (primary HIV-1 isolates; HIV-1 92UQ085 (clade D, R5), PD in DMEM with 10% fetal bovine serum, IC90 per footnote): 5.3 µM
IC90 (primary HIV-1 isolates; HIV-1 92UQ085 (clade D, R5), PD in cervical fluids, IC90 per footnote): 6.7 µM
IC90 (primary HIV-1 isolates; HIV-1 92UQ085 (clade D, R5), PD in seminal plasma, IC90 per footnote): 6.67 µM
IC90 (primary HIV-1 isolates; HIV-1 93BR020 (clade F, X4), PD in DMEM with 10% fetal bovine serum, IC90 per footnote): 6.8 µM
IC90 (primary HIV-1 isolates; HIV-1 93BR020 (clade F, X4), PD in cervical fluids, IC90 per footnote): 7.6 µM
IC90 (primary HIV-1 isolates; HIV-1 93BR020 (clade F, X4), PD in seminal plasma, IC90 per footnote): 7.19 µM
IC90 (primary HIV-1 isolates; HIV-1 93BR028 (clade F, R5), PD in DMEM with 10% fetal bovine serum, IC90 per footnote): 3.6 µM
IC90 (primary HIV-1 isolates; HIV-1 93BR028 (clade F, R5), PD in cervical fluids, IC90 per footnote): 4.6 µM
IC90 (primary HIV-1 isolates; HIV-1 93BR028 (clade F, R5), PD in seminal plasma, IC90 per footnote): 3.72 µM
IC90 (primary HIV-1 isolates; HIV-1 93IN101 (clade C, R5), PD in DMEM with 10% fetal bovine serum, IC90 per footnote): 5.1 µM
IC90 (primary HIV-1 isolates; HIV-1 93IN101 (clade C, R5), PD in cervical fluids, IC90 per footnote): 5.6 µM
IC90 (primary HIV-1 isolates; HIV-1 93IN101 (clade C, R5), PD in seminal plasma, IC90 per footnote): 5.38 µM
IC90 (primary HIV-1 isolates; HIV-1 93TH083 (clade E, X4), PD in DMEM with 10% fetal bovine serum, IC90 per footnote): 6.3 µM
IC90 (primary HIV-1 isolates; HIV-1 93TH083 (clade E, X4), PD in cervical fluids, IC90 per footnote): 6.4 µM
IC90 (primary HIV-1 isolates; HIV-1 93TH083 (clade E, X4), PD in seminal plasma, IC90 per footnote): 6.66 µM
IC90 (primary HIV-1 isolates; HIV-1 98IN017 (clade C, X4), PD in cervical fluids, IC90 per footnote): 2.4 µM
IC90 (primary HIV-1 isolates; HIV-1 98IN017 (clade C, X4), PD in seminal plasma, IC90 per footnote): 2.09 µM
IC90 (primary HIV-1 isolates; HIV-1 Jv1063 (clade G, R5), PD in DMEM with 10% fetal bovine serum, IC90 per footnote): 3.8 µM
IC50 (primary HIV-1 isolates; HIV-1 RU132 (clade G, R5), PD in DMEM with 10% fetal bovine serum): 0.8 µM
IC90 (primary HIV-1 isolates; HIV-1 RU132 (clade G, R5), PD in DMEM with 10% fetal bovine serum, IC90 per footnote): 3.1 µM
IC90 (primary HIV-1 isolates; HIV-1 RU132 (clade G, R5), PD in cervical fluids, IC90 per footnote): 3.8 µM
IC90 (primary HIV-1 isolates; HIV-1 RU132 (clade G, R5), PD in seminal plasma, IC90 per footnote): 3.26 µM
IC50 (primary HIV-1 isolates; broad range of primary HIV-1 isolates as well as HIV-2): ~1 µM
IC50 (primary HIV-1 isolates; read-out: IC50, range over the tested subtypes of HIV-1, PD in DMEM, TZM-bl): 0.33 to 1.8 µM
IC50 (primary HIV-1 isolates; read-out: IC50, range over the tested subtypes of HIV-1, PD in cervical fluid, TZM-bl): 0.61 to 2.3 µM
IC90 (primary HIV-1 isolates; read-out: IC90, range over the tested subtypes of HIV-1, PD in DMEM, TZM-bl): 1.4 to 6.6 µM
IC90 (primary HIV-1 isolates; read-out: IC90, range over the tested subtypes of HIV-1, PD in cervical fluid, TZM-bl): 1.8 to 7.5 µM
IC50 (primary HIV-1 isolates; several isolates of HIV-1 and SIV in TZM-bl cells, PD diluted in DMEM or cervical fluid): ~1 µM
IC90 (HIV-2; HIV-2OD 0310342): 4.7 µM
IC90 (HIV-2; HIV-27312A): 6.6 µM
CC50 ([1]; cervical cancer cells): > 300 µM
CC50 ([1]; seven different human cell lines, including TZM-bl (HeLa)): > 300 µM
effect on HIV-1 infection (HIV-1 (R5 JR-CSF); 10 μM PD added 1, 2, 4 and 8 h after virus inoculation): loses its antiviral effect
effect on HIV-1 infection (HIV-1 (R5 JR-CSF); 10 μM PD added to cells before the virus): retains its full potency up to 8 h before the addition of the virus
effect on HIV-1 infection (HIV-1 (R5 JR-CSF); 10 μM PD added together with the virus (time zero)): significantly inhibits HIV-1 infection
effect on HIV-1 infection (HIV-1 (R5 JR-CSF); extended (>16 h) preincubation of PD with cells prior to virus inoculation): significantly reduces the compound's antiviral efficacy
antiviral activity lost (VSV-Gpp): no activity loss
stability (VSV-Gpp; pH 4): highly stable
effect on HSV-1 infection (HSV-1 (Syn 17); MOI 1): partial protection
effect on HSV-1 infection (HSV-1 (Syn 17); MOI from 0.0001 to 0.1): inhibit both HSV-1 and HSV-2 infection
effect on HSV-2 infection (HSV-2 (333); MOI 1): partial protection
effect on HSV-2 infection (HSV-2 (333); MOI from 0.0001 to 0.1): inhibit both HSV-1 and HSV-2 infection
reduction in cell viability [2]: 48%
CC50 [3]: > 300 µM
